# Data reported in patent publication US4347319A, “Microbiological epoxidation process” (priority 1980, dated 1982).
# Key:
# [1] = test system: Torulopsis sp. Strain A1 (NRRLY-11,419); assay: Oxidation of sec-alcohols to ketones by cell suspensions of yeasts; assay type: cell-based; conditions: sec-alcohol to methyl ketone
# [2] = test system: Methylosinus trichosporium CRL 15 NRRL B-11,202; assay: Sec. alcohol oxidation by cell suspensions of methanol-grown cells; assay type: cell-based; conditions: sec. alcohol to methyl ketone
# [3] = test system: Methylobacter vinelandii CRL M5Y NRRL B-11,218; assay: as above; assay type: cell-based; conditions: sec. alcohol to methyl ketone
# [4] = test system: Methylococcus capsulatus CRL 25 NRRL B-11,221; assay: as above; assay type: cell-based; conditions: sec. alcohol to methyl ketone
# [5] = test system: Methylocystis parvus CRL 18 NRRL B-11,204; assay: as above; assay type: cell-based; conditions: sec. alcohol to methyl ketone
# [6] = test system: Methylomonas streptobacterium CRL 17 PM3 NRRL B-11,208; assay: as above; assay type: cell-based; conditions: sec. alcohol to methyl ketone
# [7] = test system: Methylobacter chroococcum CRL M6 NRRL B-11,214; assay: as above; assay type: cell-based; conditions: sec. alcohol to methyl ketone
# [8] = test system: Methylobacterium organophilum CRL 26 NRRL B-11,222; assay: as above; assay type: cell-based; conditions: sec. alcohol to methyl ketone
# [9] = test system: Methylobacter bovis CRL 19 NRRL B-11,217; assay: as above; assay type: cell-based; conditions: sec. alcohol to methyl ketone
# [10] = test system: Methylomonas methanica CRL M4P NRRL B-11,205; assay: as above; assay type: cell-based; conditions: sec. alcohol to methyl ketone
# [11] = test system: cell fractions of Methylosinus trichosporium (OB3b, NRRL B-11,196); assay type: biochemical; conditions: S(80); propylene to propylene oxide, methane to methanol; 30° C.
# Description: Cells were washed twice with 25 mM potassium phosphate buffer, pH 7.0 containing 5 mM MgCl2. Cells were suspended in the same buffer. The cell suspensions at 4° C. were disintegrated by a single passage through a French Pressure cell (15,000 lb./in.^2) and centrifuged at 5000×g. for 15 min. to remove unbroken bacteria. The supernatant solution (crude extract) was then centrifuged at 40,000×g. for 30 min., yielding particulate P(40) and soluble S(40) fractions. The S(40) fraction was subsequently centrifuged at 80,000×g. for 60 min., yielding particulate P(80) and soluble S(80) fractions. The particulate fractions [P(40) and P(80)] were suspended in 25 mM potassium phosphate buffer, pH 7.0, containing 5 mM MgCl2 and homogenized at 4° C.
# The oxidation of methane and propylene by particulate [(P)40 and (P)80] fractions and soluble [S(80)] fraction was measured at 30° C. by estimating the production of methanol and propylene oxide, respectively. The reaction mixtures contained in […]: 150 mM potassium phosphate buffer, pH 7.0 containing 5 mM MgCl2 b, 0.6 ml; 10μ moles NADH, and cellular fraction.
# Reaction mixtures were contained in 10 ml vials at 4° C. Vials were sealed with rubber caps. The gaseous phase in the vials was removed using vacuum and then was replaced with a gas mixture of methane or propylene and oxygen at a 1:1, v/v ratio. Oxidation of other gaseous n-alkanes and n-alkanes was examined as described above. For liquid substrates, 10 μl of substrate was used directly.
# The products of epoxidation of n-alkenes and hydroxylation of n-alkanes were assayed by flame ionization gas chromatography using a stainless steel column (12'×1/8") packed with 10% Carbowax 20 M on 80/100 Chromosorb W and Porapak Q column. The column temperature was maintained isothermally at 120° C. The carrier gas flow rate was 30 ml/min. of helium. The various products were identified by retention time comparisons and co-chromatography with authentic standards.
# Specific activities were expressed as μ moles of products formed per hour per mg. protein. Concentrations of protein in various fractions were determined by the method of Lowry et al., J. Biol. Chem., 193: 265-275 (1951).
# [12] = test system: cell fractions of Methylomonas sp. (CRL-17, NRRL B-11,208); assay: Oxidation by cell fractions P(40), P(80), S(80); assay type: biochemical; conditions: propylene to propylene oxide, methane to methanol, 30° C.
# Procedure, shortened: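 Cells washed and French-press disrupted in 25 mM K phosphate pH 7.0 with 5 mM MgCl2; particulate P(40), P(80) and soluble S(80) fractions from 40,000×g and 80,000×g spins. Methane or propylene (1:1 with O2) oxidised at 30° C with NADH; methanol/propylene oxide by GC; activity as μmoles product/h/mg protein.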
# [13] = test system: Methylocystis parvus (CRL 18 PM4) NRRL B-11,204; assay: Oxidation by washed cell suspensions of methane-grown cells; assay type: cell-based; conditions: methane-grown washed cells, 30° C.; methane to methanol, alkene to 1,2-epoxide
# Procedure, shortened: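 Products were quantified by gas chromatography (flame ionization) in headspace/liquid samples taken periodically from sealed vials. Each vial held 2 mg washed methane-grown cells in 0.15 M phosphate pH 7.0 under a 1:1 substrate/oxygen gas phase, shaken at 30 °C.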
smiles,measurement,setting,value
CCC(C)O (centres unmarked) [2-Butanol],Conversion Rate,[1]; growth substrate Ethanol,4.7 μmoles/hr/mg of protein
same,Conversion Rate,[1]; growth substrate Methanol,4.9 μmoles/hr/mg of protein
same,Conversion Rate,[1]; growth substrate Methylamine,4.5 μmoles/hr/mg of protein
same,Conversion Rate,[1]; growth substrate Methylformate,4.9 μmoles/hr/mg of protein
same,Conversion Rate,[1]; growth substrate Propylamine,3.8 μmoles/hr/mg of protein
same,Conversion Rates,[2],4.5 μmoles/hr/mg protein
same,Conversion Rates,[3],2.0 μmoles/hr/mg protein
same,Conversion Rates,[4],0.95 μmoles/hr/mg protein
same,Conversion Rates,[5],1.0 μmoles/hr/mg protein
same,Conversion Rates,[6],2.0 μmoles/hr/mg protein
same,Conversion Rates,[7],1.4 μmoles/hr/mg protein
same,Conversion Rates,[8],2.5 μmoles/hr/mg protein
same,Conversion Rates,[9],1.8 μmoles/hr/mg protein
same,Conversion Rates,[10],2.5 μmoles/hr/mg protein
C [Methane],Oxidizing Activity (rate of oxidation) in cell fraction,[11],0 μ moles of products formed per
same,Oxidizing Activity (rate of oxidation) in cell fraction,[12]; P(40),2.9 μ moles of products formed per
same,Oxidizing Activity (rate of oxidation) in cell fraction,[12]; P(80),2.7 μ moles of products formed per
same,Oxidizing Activity (rate of oxidation) in cell fraction,[12]; S(80),0 μ moles of products formed per
C=CC [Propylene],Oxidative Conversion Rates,[13],1.5 μmole/hr/mg protein
same,Oxidizing Activity (rate of oxidation) in cell fraction,[11],0 μ moles of products formed per
same,Oxidizing Activity (rate of oxidation) in cell fraction,[12]; P(40),2.2 μ moles of products formed per
same,Oxidizing Activity (rate of oxidation) in cell fraction,[12]; P(80),2.0 μ moles of products formed per
same,Oxidizing Activity (rate of oxidation) in cell fraction,[12]; S(80),0 μ moles of products formed per
